Assay [1] concerns NF-κB pathway (SEAP) in THP1-Dual cells. Kind of assay: THP-1 Dual cell SEAP assay (L18-MDP stimulated). Type of assay: cell-based. The following applies: Homo sapiens, THP1-Dual, read-out: NF-κB THP1 IC50 bin. The method, boiled down:
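THP1-Dual cells (~25,000/well) were preincubated 30 min with serially diluted compounds, then stimulated with 10 ng/mL L18-MDP (final) for 20-24 h at 37 °C. Supernatant SEAP was read with QUANTI-Blue at OD 620-655 nm after 2 h. IC50 came from non-linear fits of % inhibition versus DMSO/L18-MDP controls after media-blank subtraction.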

Assay [2] concerns the target T1, GST-RIPK2 fusion protein (human RIPK2, amino acids 1-310) (Homo sapiens, UniProt O43353).
T1 construct: made in house; host or cells: baculovirus infected Sf9 cells
As to the kind of experiment: RIPK2 binding competition assay (TR-FRET, Tracer 199 displacement). Conditions: 10 nM Tracer 199, 1 nM GST-RIPK2, read-out: RIPK2 IC50. The method in brief:
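GST-RIPK2 (human aa 1-310, Sf9-expressed; final 1 nM) with Tracer 199 (final 10 nM) and Tb-anti-GST (final 0.5 nM) in Tris pH 7.5 buffer, 45 min at 22 °C. TR-FRET 665/620 nm ratio after 337 nm excitation; normalized to no-inhibitor (0%) and no-protein (−100%), giving IC50.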
In general terms: Time-resolved FRET reads energy transfer from a long-lived donor to a nearby acceptor.

The target of assay [3] is T2, binding of His-XIAP(BIR2)-avi fusion protein to GST-RIPK2 fusion protein (RIPK2/XIAP) (Homo sapiens, UniProt O43353).
T2 construct: made in house; host or cells: baculovirus infected Sf9 cells
Kind of assay: RIPK2-XIAP binding competition PPI assay (TR-FRET). Conditions: RIPK2/XIAP binding competition PPI assay; for Emax: Amax, read-out: PPI Amax bin; for IC50: read-out: PPI IC50 bin. The method, boiled down:
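Compounds (in DMSO, 100-fold stock) incubated 120 min at 23 °C with 1 nM GST-RIPK2 (aa 1-310) and 25 nM His-XIAP(BIR2 aa 152-231)-avi, plus anti-His-XL665 and anti-GST-Tb, in pH 7.5 Tris buffer. Read-out: 665/520 nm emission ratio. Normalized to no-inhibitor (0%) and 50 nM GSK583 (−100%); Amax binned A–D.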

T1 sequence (O43353 1-310): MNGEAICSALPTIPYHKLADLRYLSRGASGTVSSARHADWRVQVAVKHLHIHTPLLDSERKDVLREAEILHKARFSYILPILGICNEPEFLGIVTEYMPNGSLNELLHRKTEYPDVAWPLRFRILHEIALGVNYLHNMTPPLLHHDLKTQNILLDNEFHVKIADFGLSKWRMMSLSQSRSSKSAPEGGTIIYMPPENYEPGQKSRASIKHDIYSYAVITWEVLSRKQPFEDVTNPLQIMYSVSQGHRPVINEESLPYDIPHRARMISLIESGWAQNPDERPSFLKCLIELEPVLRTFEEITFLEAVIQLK
T2 sequence (O43353 1-310 limits assumed): as the sequence (O43353 1-310) above

The term IC50 denotes the concentration at which inhibition is half-maximal. In the case of `CC(C)(C)S(=O)(=O)c1cn2c(-c3cc(F)c(N)nc3F)cnc2cc1OC[C@H]1C[C@@H](O)C1` [Example 196, (1s,3s)-3-(((3-(6-amino-2,5-difluoropyridin-3-yl)-6-(tert-butylsulfonyl)imidazo [1,2-a]pyridin-7-yl)oxy)methyl) cyclobutan-1-ol], the values for the IC50 in assay [1], in assay [2] and in assay [3] were 0.05 to 0.25 µM, 0.001 to 0.0025 µM and 0.001 to 0.0025 µM, respectively. In addition, in assay [3], the Emax was over 80%.

For `Nc1cc(-c2cnc3ccc(C(F)(F)F)cn23)cc(F)n1` [Example 4, 6-fluoro-4-(6-(trifluoromethyl)imidazo[1,2-a]pyridin-3-yl)pyridin-2-amine], the values for the IC50 in assay [1], in assay [2] and in assay [3] were 0.25 to 1 µM, over 0.02 µM and over 0.02 µM, respectively. The Emax in assay [3] was under 30%.

Turning to `COc1cn2ncc(-c3cc(F)c(N)nc3F)c2cc1C1(O)CCN(C)CC1` [Example 73, 4-(3-(6-amino-2,5-difluoropyridin-3-yl)-6-methoxypyrazolo[1,5-a]pyridin-5-yl)-1-methylpiperidin-4-ol], the IC50 in assay [1] fell in the range of 0.25 to 1 µM; in assay [2], 0.0025 to 0.02 µM; in assay [3], 0.0025 to 0.02 µM. Further, the Emax in assay [3] is over 80%.

Turning to `CC(C)(C)S(=O)(=O)c1cn2c(-c3cc(F)c(N)nc3F)cnc2cc1OC[C@H]1C[C@H](O)C1` [Example 197, (1r,3r)-3-(((3-(6-amino-2,5-difluoropyridin-3-yl)-6-(tert-butylsulfonyl)imidazo [1,2-a]pyridin-7-yl)oxy)methyl) cyclobutan-1-ol], the IC50 was 0.05 to 0.25 µM in assay [1], under 0.001 µM in assay [2] and under 0.001 µM in assay [3]. For the same molecule, the Emax in assay [3] is over 80%.

With `COc1cc2ncc(-c3cccc(NS(=O)(=O)C4CCNC4)c3)n2cc1S(=O)(=O)C(C)(C)C` (centres unmarked) [Example 154, N-(3-(6-(tert-butylsulfonyl)-7-methoxyimidazo[1,2-a]pyridin-3-yl)phenyl)pyrrolidine-3-sulfonamide], the figures for the IC50 in assay [1], in assay [2] and in assay [3] were over 1 µM, 0.0025 to 0.02 µM and 0.0025 to 0.02 µM, respectively. Further, in assay [3], the Emax is over 80%.

Consider `Cc1c[nH]c2ncc(-c3cnc4cc(OCCO)c(S(=O)(=O)C(C)(C)C)cn34)cc12` [Example 218, 2-((6-(tert-butylsulfonyl)-3-(3-methyl-1H-pyrrolo[2,3-b]pyridin-5-yl)imidazo[1,2-a]pyridin-7-yl)oxy)ethan-1-ol], for which the IC50 is over 1 µM in assay [1], 0.0025 to 0.02 µM in assay [2] and 0.0025 to 0.02 µM in assay [3]. In addition, in assay [3], the Emax was 55 to 80%.

On to `CC(C)(C)S(=O)(=O)c1cn2c(-c3cc(F)c(N)nc3F)cnc2cc1OCC(O)CO` (centres unmarked) [Example 55, 3-((3-(6-amino-2,5-difluoropyridin-3-yl)-6-(tert-butylsulfonyl)imidazo[1,2-a]pyridin-7-yl)oxy)propane-1,2-diol], for which the 50% inhibitory concentration (IC50) in assay [1] lay in the range of 0.25 to 1 µM; in assay [2] it was 0.0025 to 0.02 µM; in assay [3] it was 0.0025 to 0.02 µM. In addition, the Emax in assay [3] is over 80%.

In the case of `COc1cc2ncc(-c3ccc4nc(N)n(C)c4c3)n2cc1S(=O)(=O)C(C)(C)C` [Example 100, 6-(6-(tert-butylsulfonyl)-7-methoxyimidazo[1,2-a]pyridin-3-yl)-1-methyl-1H-benzo[d]imidazol-2-amine], the values for the 50% inhibitory concentration (IC50) in assay [1], in assay [2] and in assay [3] were over 1 µM, 0.0025 to 0.02 µM and over 0.02 µM, respectively. In assay [3], the Emax was under 30%.

Regarding `CC(C)(C)S(=O)(=O)c1cn2c(-c3cnc4[nH]ccc4c3)cnc2cc1OCCO` [Example 53, 2-((6-(tert-butylsulfonyl)-3-(1H-pyrrolo[2,3-b]pyridin-5-yl)imidazo[1,2-a]pyridin-7-yl)oxy)ethan-1-ol], the figures for the IC50 in assay [1], in assay [2] and in assay [3] were 0.05 to 0.25 µM, under 0.001 µM and 0.001 to 0.0025 µM, respectively. For the same molecule, in assay [3], the Emax is over 80%.

Turning to `CC(C)(C)S(=O)(=O)c1cn2c(-c3cc(F)c(N)nc3F)cnc2cc1C(=O)NCCO` [Example 44, 3-(6-amino-2,5-difluoropyridin-3-yl)-6-(tert-butylsulfonyl)-N-(2-hydroxyethyl)imidazo[1,2-a]pyridine-7-carboxamide], the IC50 in assay [1] is over 1 µM; in assay [2], over 0.02 µM; in assay [3] it was over 0.02 µM. Also, the Emax in assay [3] is over 80%.

For the molecule `CC(C)(C)S(=O)(=O)c1cn2c(-c3cc(F)c(N)nc3F)cnc2cc1OCC(F)(F)CO` [Example 54, 3-((3-(6-amino-2,5-difluoropyridin-3-yl)-6-(tert-butylsulfonyl)imidazo[1,2-a]pyridin-7-yl)oxy)-2,2-difluoropropan-1-ol], the IC50 lay within 0.05 to 0.25 µM in assay [1], 0.001 to 0.0025 µM in assay [2] and 0.0025 to 0.02 µM in assay [3]. Moreover, in assay [3], the Emax is over 80%.

Turning to `COCCN1CCC(C)(S(=O)(=O)c2cn3c(-c4cc(F)c(N)nc4F)cnc3cc2OC)CC1` [Example 125, 3,6-difluoro-5-(7-methoxy-6-((1-(2-methoxyethyl)-4-methylpiperidin-4-yl)sulfonyl)imidazo[1,2-a]pyridin-3-yl)pyridin-2-amine], the IC50 in assay [1] lay in the range of 0.25 to 1 µM; in assay [2], 0.0025 to 0.02 µM; in assay [3] it was 0.0025 to 0.02 µM. For the same molecule, the Emax in assay [3] is over 80%.

On to `COc1cc2ncc(-c3cc(F)c(OC)c(NS(=O)(=O)c4cnc(O)nc4)c3)n2cc1S(=O)(=O)C(C)(C)C` [Example 248, N-(5-(6-(tert-butylsulfonyl)-7-methoxyimidazo[1,2-a]pyridin-3-yl)-3-fluoro-2-methoxyphenyl)-2-hydroxypyrimidine-5-sulfonamide], for which the 50% inhibitory concentration (IC50) in assay [1] is over 1 µM; in assay [2], 0.0025 to 0.02 µM; in assay [3], 0.0025 to 0.02 µM. Moreover, in assay [3], the Emax was 55 to 80%.

Consider `CC(C)(C)S(=O)(=O)c1cn2c(-c3cnc4ccnn4c3)cnc2cc1OCCO` [Example 221, 2-((6-(tert-butylsulfonyl)-3-(pyrazolo[1,5-a]pyrimidin-6-yl)imidazo[1,2-a]pyridin-7-yl)oxy)ethan-1-ol], for which the concentration for half-maximal inhibition (IC50) in assay [1] is over 1 µM; in assay [2], over 0.02 µM; in assay [3], over 0.02 µM. The Emax in assay [3] was over 80%.

Turning to `COC1(COc2cc3ncc(-c4cc(F)c(N)nc4F)n3cc2S(=O)(=O)C(C)(C)C)COC1` [Example 35, 5-(6-(tert-butylsulfonyl)-7-((3-methoxyoxetan-3-yl)methoxy)imidazo[1,2-a]pyridin-3-yl)-3,6-difluoropyridin-2-amine], the IC50 in assay [1] is 0.25 to 1 µM; in assay [2], 0.0025 to 0.02 µM; in assay [3], 0.0025 to 0.02 µM. The Emax in assay [3] was over 80%.

For `CC(C)(C)S(=O)(=O)c1cn2c(-c3cnc4[nH]cc(F)c4c3)cnc2cc1OCCO` [Example 220, 2-((6-(tert-butylsulfonyl)-3-(3-fluoro-1H-pyrrolo[2,3-b]pyridin-5-yl)imidazo[1,2-a]pyridin-7-yl)oxy)ethan-1-ol], the IC50 in assay [1] is under 0.05 µM; in assay [2], under 0.001 µM; in assay [3] it was under 0.001 µM. In assay [3], the Emax was over 80%.

For `CC(C)(C)S(=O)(=O)c1cn2c(-c3cc(Cl)c(N)nc3F)cnc2cc1OCC(=O)O` [Example 299, 2-((3-(6-amino-5-chloro-2-fluoropyridin-3-yl)-6-(tert-butylsulfonyl)imidazo[1,2-a]pyridin-7-yl)oxy)acetic acid], the half-inhibitory concentration (IC50) in assay [1] was over 1 µM; in assay [2] it was over 0.02 µM; in assay [3] it was over 0.02 µM. The Emax in assay [3] is over 80%.

Turning to `COc1cc2ncc(-c3ccc4c(c3)c(C)nn4C)n2cc1S(=O)(=O)C(C)(C)C` [Example 101, 5-(6-(tert-butylsulfonyl)-7-methoxyimidazo[1,2-a]pyridin-3-yl)-1,3-dimethyl-1H-indazole], the values for the IC50 in assay [1], in assay [2] and in assay [3] were over 1 µM, 0.0025 to 0.02 µM and over 0.02 µM, respectively. Also, in assay [3], the Emax is under 30%.

Take `COc1cc2ncc(-c3cc(F)c(OC)c4[nH]ncc34)n2cc1S(=O)(=O)C(C)(C)C` [Example 120, 4-(6-(tert-butylsulfonyl)-7-methoxyimidazo[1,2-a]pyridin-3-yl)-6-fluoro-7-methoxy-1H-indazole]: the IC50 in assay [1] is over 1 µM; in assay [2] it was 0.0025 to 0.02 µM; in assay [3], 0.0025 to 0.02 µM. The Emax in assay [3] was 55 to 80%.

In the case of `C[C@H](O)COc1cc2ncc(-c3cc(Cl)c(N)nc3F)n2cc1S(=O)(=O)C(C)(C)C` [Example 169, (S)-1-((3-(6-amino-5-chloro-2-fluoropyridin-3-yl)-6-(tert-butylsulfonyl)imidazo[1,2-a]pyridin-7-yl)oxy)propan-2-ol], the values for the IC50 in assay [1], in assay [2] and in assay [3] were 0.05 to 0.25 µM, 0.001 to 0.0025 µM and 0.001 to 0.0025 µM, respectively. In assay [3], the Emax is over 80%.

The values are drawn from patent US20260137706A1, “METHODS OF TREATING INFLAMMATORY DISEASES” (INTERLINE THERAPEUTICS, INC., priority 2023, published 2026).
